Laboratory results: patent US20100299770A1, “TARGETED CELL DEATH” (priority 2007, published 2010)

Assays:
[1] = test system: primary oligodendrocyte cultures; assay: CID-induced cell death in iCP9 virus-transduced primary oligodendrocyte cultures; type: cell-based, rat; conditions: CID 10 nM; cultures stably expressing iCP9; fluorescent microscope and Methylene Blue viability staining
Protocol: 293T cells were transfected with the pΔmbpICP9/mEGFP vector along with plasmids encoding the gag-pol and RD114 envelope protein using lipofectamine (Invitrogen, Carlsbad, Calif.). Forty-eight hours after transfection viral supernatant were harvested and either directly applied to target cells or snap frozen and stored at -80° C.
To induce timely cell death. Collected virus was used to transduce primary oligodendrocyte cultures that have been established. Cells were cultured and evaluated using fluorescent microscopy for the expression of GFP. The extent of GFP positive cells correlated with the viral infection efficacy. Cell protein isolation was conducted and protein isolates were subjected to Western blot transfer to detect stable expression of the iCP9 protein. The resultant membrane was probed with anti-caspase 9 antibody (R&D Systems Inc. #AF8301). Once the stable expression of iCP9 was confirmed at the protein level wan western mot techniques, the CID was applied to these cells in culture at a 10 nM concentration. […] Cell death was detected by viewing cultures under the fluorescent microscope and by using Methylene Blue (Sigma) viability staining of cells in culture after exposure to the CID. All experiments were run in parallel using the astrocyte-derived U87 cell line as a negative control.

[2] = test system: CNS of adult rats; assay: Animal model of CNS demyelination, virus applied to CNS of adult rats, CID intraperitoneal; type: in vivo, rat; conditions: CID via intraperitoneal injection at various times after virus
Protocol: The virus described above, pΔmbpICP9/mEGFP, which contains the inducible caspase 9 sequence was applied to the CNS of adult rats to create an in vivo model of CNS demyelination. Administration of the viral vector allowed effective transfer of genetic information in a variable area of parenchyma based on the rate of administration (convective distribution) and viral titer. […] First, adult Fischer rats were anaesthetized by intraperitoneal injection o f ketamine hydrocholoride (80 mg/kg) and xylazine ([…]) and placed in a sereotactic frame. A midline scalp incision is made. Access to brain parenchyma was accomplished by plaement of a right-sided burr hole through the skull, at various predetermined coordinates depending on the desired location of the lesion. […] The volume of viral vector (e.g., lentivirus) delivered depends upon the infection efficacy as determined herein and the target area size. After injection, the needle is left in place for five minutes and then slowly withdrawn over the next four minutes. The skin was closed with sutures.
For virus administration to the spinal cord an incision was made in the thoracic spine followed by a lamenectomy to expose the spinal cord. A No. 32S-gauge needle was passed into the posterior column at predetermined coordinates.

For `CC[C@H](C(=O)N1CCCC[C@H]1C(=O)O[C@H](CCc1ccc(OC)c(OC)c1)c1cccc(OCC(=O)NCC(CNC(=O)COc2cccc([C@@H](CCc3ccc(OC)c(OC)c3)OC(=O)[C@@H]3CCCCN3C(=O)[C@@H](CC)c3cc(OC)c(OC)c(OC)c3)c2)CN(C)C)c1)c1cc(OC)c(OC)c(OC)c1` [CID, AP20187], the “cell death of infected cells after CID” value [1] was “induced the cellular death of infected cells” and the “effect of CID on the infected region of the CNS” value [2] was “apoptosis of the infected region of the CNS”.
